Entries after “also recorded” stand apart in the source; their conditions may differ. Some results are limits rather than exact numbers.

Data set [1] deals with 3D bioprinted intestinal tissue.
For data set [2], the system named is prostaglandin E2 synthesis. The data set is described as follows: Prostaglandin E2 synthesis in 3D bioprinted intestinal tissue. It is filed as cell-based, human. Conditions: all indomethacin doses tested.
Data set [3] concerns 3D bioprinted intestinal tissue. Particulars: higher / increasing doses of indomethacin.
The test system is the same in data set [4]. The data set is described as follows: Barrier function (TEER) of 3D bioprinted intestinal tissue after toxicant treatment. Particulars: 24 hour incubation, varying doses.
The test system is the same in data set [5]. Briefly: LDH activity / release from 3D bioprinted intestinal tissue after toxicant treatment.
In a further data set the target is T1, BCRP (Homo sapiens, UniProt Q9UNQ0).
T1 sequence (Q9UNQ0 1-655): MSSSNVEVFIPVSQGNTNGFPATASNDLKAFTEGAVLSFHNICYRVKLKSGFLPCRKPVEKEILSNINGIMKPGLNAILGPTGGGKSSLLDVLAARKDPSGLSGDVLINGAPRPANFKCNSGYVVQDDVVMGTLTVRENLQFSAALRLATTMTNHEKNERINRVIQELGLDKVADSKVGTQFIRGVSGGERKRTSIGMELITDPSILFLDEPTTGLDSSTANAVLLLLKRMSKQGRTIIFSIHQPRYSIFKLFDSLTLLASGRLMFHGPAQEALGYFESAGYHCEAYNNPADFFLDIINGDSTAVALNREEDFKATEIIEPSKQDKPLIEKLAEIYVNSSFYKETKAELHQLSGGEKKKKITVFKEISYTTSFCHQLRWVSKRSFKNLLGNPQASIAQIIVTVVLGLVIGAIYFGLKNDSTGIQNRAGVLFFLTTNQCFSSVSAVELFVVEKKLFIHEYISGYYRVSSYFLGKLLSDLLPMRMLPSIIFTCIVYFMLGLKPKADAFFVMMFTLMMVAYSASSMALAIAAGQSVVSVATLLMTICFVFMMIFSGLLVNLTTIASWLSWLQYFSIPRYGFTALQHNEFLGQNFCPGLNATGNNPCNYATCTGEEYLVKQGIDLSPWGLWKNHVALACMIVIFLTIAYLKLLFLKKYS
The procedure: FIGS. 25A-25D show P-gp and BCRP transporter function in 3D bioprinted intestinal tissue.
P-gp and BCRP function were tested in the 3D bioprinted intestinal tissue model by measuring bi-directional transport with and without inhibition (FIG. 25C).

The subject of data set [6] is 3D printed tissues and 2D epithelial monolayers of Caco-2/STC-1 cells. Briefly: Lucifer Yellow permeability (barrier integrity) of 3D printed Caco-2 tissues and 2D monolayers. It is filed as in vitro ADME, human. Conditions: bioprinted 3D constructs and 2D monolayers (Caco-2/STC-1), later stages of culture. The procedure: FIG. 5 is a bar graph showing permeability comparison of 2D monolayers and 3D bioprinted Caco-2 tissues measured by Lucifer Yellow. […] Permeability was measured on 3D printed tissues and compared to 2D epithelial monolayers of Caco-2/STC-1 cells and interstitium alone.
Experiment time course studies were run 4, 7, and 14 days post addition of epithelial cells. Tissues were measured for GLP-1 secretion into supernatant. Tissues were also measured for barrier function at multiple time points by TEER or Lucifer yellow (non-lytic assays). After incubation, the tissues were fixed in paraformaldehyde (PFA) for histology or lysed for RNA extraction.
(Caco-2 monolayers are a common model of the intestinal barrier.)

The next data set concerns COX2, IL8, and TNFα. Briefly: Inflammation gene expression after TNFα treatment of 3D bioprinted intestinal tissue. It is filed as cell-based, human. Particulars: TNFα high dose, 24 hours.
In data set [7] the test system is 3D bioprinted intestinal tissue. The source holds these as a separate data set.

Experimental for COX2, IL8, and TNFα: To characterize the 3D bioprinted intestinal model response to inflammation, commonly associated with GI toxicity as well as chronic disease conditions, tissues were treated with a high dose of pro-inflammatory cytokine TNFα for 24 hours and evaluated for changes in morphology, LDH release, and gene expression (FIG. 28).

In the case of `C[C@H]1O[C@@H](O[C@H]2[C@@H](O)C[C@H](O[C@H]3[C@@H](O)C[C@H](O[C@H]4CC[C@@]5(C)[C@H](CC[C@@H]6[C@@H]5C[C@@H](O)[C@]5(C)[C@@H](C7=CC(=O)OC7)CC[C@]65O)C4)O[C@@H]3C)O[C@@H]2C)C[C@H](O)[C@@H]1O` [digoxin], the “permeability in the apical to basal direction” value in data set [1] was “moderate”.
With `COc1ccc2c(c1)c(CC(=O)O)c(C)n2C(=O)c1ccc(Cl)cc1` [indomethacin], in [2], the “prostaglandin E2 synthesis” value is “decreased to similar levels for all indomethacin doses tested; also recorded: inhibition of prostaglandin E2 synthesis”. For the same molecule, in data set [3], the “E-Cadherin expression (marker of barrier function)” value is recorded as “reduction in E-Cadherin; also recorded: decreased expression of E-Cadherin”; the “histology of the epithelium” value was “disruption of the epithelium and distorted nuclear staining; also recorded: increased disruption of the epithelial layer”. For the same molecule, the “barrier function measured by TEER” value in [4] is recorded as “dose response decrease in TEER; also recorded: dose-dependent decrease in barrier function; also recorded: decreased TEER”. In data set [5] (24 hour treatment, increasing indomethacin dose), the LDH activity entry was “increased”. In data set [5] (indomethacin doses above 0.25 mM), the LDH release entry is on record as “significantly increased”.
As to `O=C1c2c(O)ccc(O)c2C(=O)c2c(NCCNCCO)ccc(NCCNCCO)c21` [mitoxantrone], the “permeability in the B to A direction compared with A to B” value at BCRP is given as “much higher permeability”.
Consider `CC[C@@]1(O)C(=O)OCc2c1cc1n(c2=O)Cc2cc3c(CN(C)C)c(O)ccc3nc2-1` [topotecan], for which the efflux ratio on BCRP (control conditions) came to 8.8.
As for Lucifer yellow, in [6], the “Lucifer Yellow permeability” value was below 3%.
Regarding TNFα, the “gene expression of COX2, IL8 and TNFα” value in the data set on COX2, IL8, and TNFα is “upregulated”. In addition, in data set [7], the barrier function result was “decreased barrier function”.

By efflux ratio is commonly meant a quotient of directional permeabilities that is used to spot active efflux.

The values are drawn from patent publication US11655456B2, “Engineered intestinal tissue and uses thereof” (Organovo, Inc., priority 2016, dated 2023).
